{"source": "paper PMC6326728", "about": "“eIF2B activator prevents neurological defects caused by a chronic integrated stress response” (eLife, 2019)", "assay_in_all_cases": "biochemical", "design_in_all_cases": "CEREP panel radioligand binding displacement, % inhibition of control specific binding by 10 uM 2BAct", "key": {"5-HT2A (h)": {"biological_target": "T1, 5-HT2A (h) (Homo sapiens, UniProt P28223)", "T1 construct": "gene HTR2A", "settings": "Type=Antagonist radioligand; read-out: % inhibition of Control specific binding", "experimental": "(§1) Supplementary file elife-42940-supp1.xlsx: Supplementary file 1. (A) Binding of 2BAct at 10 μM to the CEREP panel of receptors/enzymes/ion channels. Compound binding was calculated as a % inhibition of the binding of a radioactively labeled ligand specific for each target. Results showing inhibition or stimulation higher than 50% are considered to represent significant effects of the test compound. (B) Pharmacokinetic data from 2BAct dosing in mice. (C) GO Biological Processes identified by enrichment analysis of RNA-seq data. (D) List of genes used for enrichment analysis of scRNA-seq data."}, "A2a (h)": {"biological_target": "T2, A2a (h) (Homo sapiens, UniProt P29274)", "T2 construct": "gene ADORA2A", "settings": "Type=Agonist radioligand; read-out: % inhibition of Control specific binding", "experimental": "as §1"}, "AR (h)": {"biological_target": "AR (h) (Homo sapiens, UniProt P10275)", "settings": "Type=Agonist radioligand; read-out: % inhibition of Control specific binding", "experimental": "as §1"}, "NK2 (h)": {"biological_target": "T3, NK2 (h) (Homo sapiens, UniProt P21452)", "T3 construct": "gene TACR2", "T3 sequence (P21452 whole entry)": "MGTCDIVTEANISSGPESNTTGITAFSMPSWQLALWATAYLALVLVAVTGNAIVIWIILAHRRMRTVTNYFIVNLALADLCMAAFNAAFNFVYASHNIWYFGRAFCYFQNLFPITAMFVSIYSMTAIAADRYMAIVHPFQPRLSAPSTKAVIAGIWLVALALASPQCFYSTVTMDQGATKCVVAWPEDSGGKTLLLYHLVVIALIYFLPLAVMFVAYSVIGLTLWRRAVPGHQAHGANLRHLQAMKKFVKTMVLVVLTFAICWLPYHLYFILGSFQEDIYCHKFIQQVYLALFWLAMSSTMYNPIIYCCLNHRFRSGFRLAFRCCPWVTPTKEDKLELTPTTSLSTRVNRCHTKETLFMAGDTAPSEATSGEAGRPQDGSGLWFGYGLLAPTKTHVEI", "settings": "Type=Agonist radioligand; read-out: % inhibition of Control specific binding", "experimental": "as §1"}, "Y1 (h)": {"biological_target": "T4, Y1 (h) (Homo sapiens, UniProt P25929)", "T4 construct": "gene NPY1R", "settings": "Type=Agonist radioligand; read-out: % inhibition of Control specific binding", "experimental": "as §1"}, "5-HT1A (h)": {"biological_target": "T5, 5-HT1A (h) (Homo sapiens, UniProt P08908)", "T5 construct": "gene HTR1A", "T5 sequence (P08908 whole entry)": "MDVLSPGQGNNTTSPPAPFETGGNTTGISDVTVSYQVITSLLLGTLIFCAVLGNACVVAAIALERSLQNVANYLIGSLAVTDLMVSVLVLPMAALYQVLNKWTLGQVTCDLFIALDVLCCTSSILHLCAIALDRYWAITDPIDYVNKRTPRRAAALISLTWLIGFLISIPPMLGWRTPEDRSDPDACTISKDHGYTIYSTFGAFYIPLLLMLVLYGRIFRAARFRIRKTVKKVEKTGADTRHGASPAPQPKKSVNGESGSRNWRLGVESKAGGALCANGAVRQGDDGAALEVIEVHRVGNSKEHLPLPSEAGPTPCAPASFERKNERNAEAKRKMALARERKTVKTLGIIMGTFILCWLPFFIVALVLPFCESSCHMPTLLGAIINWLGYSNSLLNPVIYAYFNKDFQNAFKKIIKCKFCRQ", "settings": "Type=Agonist radioligand; read-out: % inhibition of Control specific binding", "experimental": "as §1"}, "5-HT1B": {"biological_target": "T6, 5-HT1B (Rattus norvegicus, UniProt P28564)", "T6 construct": "gene Htr1b", "T6 sequence (P28564 whole entry)": "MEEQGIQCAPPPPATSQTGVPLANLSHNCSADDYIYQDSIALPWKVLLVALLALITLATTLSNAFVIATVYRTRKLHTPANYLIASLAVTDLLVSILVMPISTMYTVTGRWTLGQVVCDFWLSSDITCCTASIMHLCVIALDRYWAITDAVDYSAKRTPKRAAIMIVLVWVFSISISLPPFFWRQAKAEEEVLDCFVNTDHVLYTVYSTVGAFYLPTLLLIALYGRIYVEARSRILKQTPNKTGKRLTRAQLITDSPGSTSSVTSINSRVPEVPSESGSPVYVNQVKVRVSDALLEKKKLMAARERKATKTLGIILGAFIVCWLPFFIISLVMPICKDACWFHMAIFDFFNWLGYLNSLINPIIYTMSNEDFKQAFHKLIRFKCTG", "settings": "Type=Antagonist radioligand; read-out: % inhibition of Control specific binding", "experimental": "as §1"}, "CGRP (h)": {"biological_target": "T7, CGRP (h) (Homo sapiens, UniProt Q16602)", "T7 construct": "gene CALCRL", "settings": "Type=Agonist radioligand; read-out: % inhibition of Control specific binding", "experimental": "as §1"}, "M4 (h)": {"biological_target": "T8, M4 (h) (Homo sapiens, UniProt P08173)", "T8 construct": "gene CHRM4", "settings": "Type=Antagonist radioligand; read-out: % inhibition of Control specific binding", "experimental": "as §1"}, "Estrogen ER alpha (h)": {"biological_target": "T9, Estrogen ER alpha (h) (Homo sapiens, UniProt P03372)", "T9 construct": "gene ESR1", "T9 sequence (P03372 whole entry)": "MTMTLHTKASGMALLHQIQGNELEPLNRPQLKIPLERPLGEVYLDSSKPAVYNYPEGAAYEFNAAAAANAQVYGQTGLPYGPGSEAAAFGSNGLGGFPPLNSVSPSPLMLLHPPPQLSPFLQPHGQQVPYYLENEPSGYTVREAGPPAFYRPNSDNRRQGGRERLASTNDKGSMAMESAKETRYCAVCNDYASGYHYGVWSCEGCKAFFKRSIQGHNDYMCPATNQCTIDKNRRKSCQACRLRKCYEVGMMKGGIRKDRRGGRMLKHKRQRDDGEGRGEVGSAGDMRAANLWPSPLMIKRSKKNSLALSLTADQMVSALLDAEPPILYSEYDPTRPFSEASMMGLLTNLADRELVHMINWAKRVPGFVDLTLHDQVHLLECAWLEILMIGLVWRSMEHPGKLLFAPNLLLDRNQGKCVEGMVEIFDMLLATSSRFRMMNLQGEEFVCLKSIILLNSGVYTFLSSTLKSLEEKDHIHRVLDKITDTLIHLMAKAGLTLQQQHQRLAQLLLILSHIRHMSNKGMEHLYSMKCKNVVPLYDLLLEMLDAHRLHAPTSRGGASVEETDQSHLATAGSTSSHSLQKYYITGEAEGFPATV", "settings": "Type=Agonist radioligand; read-out: % inhibition of Control specific binding", "experimental": "as §1"}, "A2b (h)": {"biological_target": "T10, A2b (h) (Homo sapiens, UniProt P29275)", "T10 construct": "gene ADORA2B", "T10 sequence (P29275 whole entry)": "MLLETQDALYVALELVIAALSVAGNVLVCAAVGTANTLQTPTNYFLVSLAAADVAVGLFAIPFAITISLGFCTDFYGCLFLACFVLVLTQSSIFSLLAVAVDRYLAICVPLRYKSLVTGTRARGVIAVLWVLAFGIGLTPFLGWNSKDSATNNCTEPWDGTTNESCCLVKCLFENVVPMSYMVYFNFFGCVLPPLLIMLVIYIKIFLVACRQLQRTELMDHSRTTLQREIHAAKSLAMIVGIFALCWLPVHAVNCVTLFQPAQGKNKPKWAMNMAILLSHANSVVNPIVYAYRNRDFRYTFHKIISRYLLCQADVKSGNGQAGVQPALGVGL", "settings": "Type=Antagonist radioligand; read-out: % inhibition of Control specific binding", "experimental": "as §1"}, "CB1 (h)": {"biological_target": "T11, CB1 (h) (Homo sapiens, UniProt P21554)", "T11 construct": "gene CNR1", "settings": "Type=Agonist radioligand; read-out: % inhibition of Control specific binding", "experimental": "as §1"}, "EP2 (h)": {"biological_target": "T12, EP2 (h) (Homo sapiens, UniProt P43116)", "T12 construct": "gene PTGER2", "settings": "Type=Agonist radioligand; read-out: % inhibition of Control specific binding", "experimental": "as §1"}, "dopamine transporter (h)": {"biological_target": "T13, dopamine transporter (h) (Homo sapiens, UniProt Q01959)", "T13 construct": "gene SLC6A3", "T13 sequence (Q01959 whole entry)": "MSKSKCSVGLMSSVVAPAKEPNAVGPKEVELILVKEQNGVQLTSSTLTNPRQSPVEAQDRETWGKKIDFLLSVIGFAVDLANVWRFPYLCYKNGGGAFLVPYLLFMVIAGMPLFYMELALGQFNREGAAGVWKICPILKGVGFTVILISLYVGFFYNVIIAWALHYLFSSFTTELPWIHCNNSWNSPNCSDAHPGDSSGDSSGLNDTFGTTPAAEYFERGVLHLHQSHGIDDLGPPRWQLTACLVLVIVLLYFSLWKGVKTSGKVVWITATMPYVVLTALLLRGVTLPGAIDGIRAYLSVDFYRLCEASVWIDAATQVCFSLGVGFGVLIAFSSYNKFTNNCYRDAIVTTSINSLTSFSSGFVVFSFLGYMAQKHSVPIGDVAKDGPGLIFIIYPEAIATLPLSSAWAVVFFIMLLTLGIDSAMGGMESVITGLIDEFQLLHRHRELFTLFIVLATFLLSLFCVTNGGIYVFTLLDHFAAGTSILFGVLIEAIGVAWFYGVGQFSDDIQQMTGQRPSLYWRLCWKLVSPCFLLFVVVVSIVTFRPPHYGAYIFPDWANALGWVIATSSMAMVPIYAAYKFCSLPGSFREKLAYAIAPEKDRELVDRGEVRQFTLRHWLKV", "settings": "Type=Antagonist radioligand; read-out: % inhibition of Control specific binding", "experimental": "as §1"}, "M3 (h)": {"biological_target": "T14, M3 (h) (Homo sapiens, UniProt P20309)", "T14 construct": "gene CHRM3", "T14 sequence (P20309 whole entry)": "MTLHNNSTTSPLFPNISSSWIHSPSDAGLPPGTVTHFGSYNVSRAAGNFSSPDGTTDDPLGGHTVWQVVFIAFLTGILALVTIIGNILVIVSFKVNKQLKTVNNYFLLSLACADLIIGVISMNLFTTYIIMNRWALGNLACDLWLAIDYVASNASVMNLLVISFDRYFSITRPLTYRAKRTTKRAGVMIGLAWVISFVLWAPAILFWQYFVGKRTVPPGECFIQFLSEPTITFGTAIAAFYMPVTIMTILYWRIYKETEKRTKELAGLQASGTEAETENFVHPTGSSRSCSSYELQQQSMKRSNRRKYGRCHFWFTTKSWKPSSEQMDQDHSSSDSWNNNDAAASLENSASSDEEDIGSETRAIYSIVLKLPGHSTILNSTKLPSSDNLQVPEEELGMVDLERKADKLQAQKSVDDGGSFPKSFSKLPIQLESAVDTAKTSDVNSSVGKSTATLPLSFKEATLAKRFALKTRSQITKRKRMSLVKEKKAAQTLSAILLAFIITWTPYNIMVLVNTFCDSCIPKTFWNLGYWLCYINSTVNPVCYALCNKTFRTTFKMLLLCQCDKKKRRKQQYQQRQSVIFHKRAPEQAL", "settings": "Type=Antagonist radioligand; read-out: % inhibition of Control specific binding", "experimental": "as §1"}, "[1]": {"biological_target": "T15, norepinephrine transporter (h) (Homo sapiens, UniProt P23975)", "T15 construct": "gene SLC6A2", "T15 sequence (P23975 whole entry)": "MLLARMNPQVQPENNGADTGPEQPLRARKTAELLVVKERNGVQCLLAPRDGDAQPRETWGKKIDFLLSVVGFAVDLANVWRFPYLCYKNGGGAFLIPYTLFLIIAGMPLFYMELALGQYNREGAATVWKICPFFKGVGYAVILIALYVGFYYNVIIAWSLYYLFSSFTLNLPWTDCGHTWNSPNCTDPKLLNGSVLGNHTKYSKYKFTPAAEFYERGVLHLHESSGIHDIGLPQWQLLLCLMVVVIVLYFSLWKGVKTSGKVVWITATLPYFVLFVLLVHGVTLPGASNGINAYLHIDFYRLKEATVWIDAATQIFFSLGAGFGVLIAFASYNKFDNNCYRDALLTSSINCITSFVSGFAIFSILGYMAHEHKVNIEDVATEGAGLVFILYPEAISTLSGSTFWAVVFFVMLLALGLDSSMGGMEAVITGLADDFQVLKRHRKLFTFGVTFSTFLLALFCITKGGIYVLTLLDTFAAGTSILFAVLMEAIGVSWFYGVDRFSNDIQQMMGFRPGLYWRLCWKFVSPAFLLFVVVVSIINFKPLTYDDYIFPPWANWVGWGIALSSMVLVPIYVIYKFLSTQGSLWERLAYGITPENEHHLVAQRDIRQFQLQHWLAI", "settings": "Type=Antagonist radioligand; read-out: % inhibition of Control specific binding", "experimental": "as §1"}, "NK1 (h)": {"biological_target": "T16, NK1 (h) (Homo sapiens, UniProt P25103)", "T16 construct": "gene TACR1", "T16 sequence (P25103 whole entry)": "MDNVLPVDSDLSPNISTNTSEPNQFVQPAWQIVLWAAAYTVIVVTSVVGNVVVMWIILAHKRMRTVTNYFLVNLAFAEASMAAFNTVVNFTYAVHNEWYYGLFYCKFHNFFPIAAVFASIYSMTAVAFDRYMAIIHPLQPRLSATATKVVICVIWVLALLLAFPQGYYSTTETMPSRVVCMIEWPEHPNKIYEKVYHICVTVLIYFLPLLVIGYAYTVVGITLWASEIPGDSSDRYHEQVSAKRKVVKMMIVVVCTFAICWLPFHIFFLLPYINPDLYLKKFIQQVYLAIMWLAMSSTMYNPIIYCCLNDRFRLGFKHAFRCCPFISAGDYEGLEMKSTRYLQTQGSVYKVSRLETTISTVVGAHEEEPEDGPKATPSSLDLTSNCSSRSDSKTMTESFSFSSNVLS", "settings": "Type=Agonist radioligand; read-out: % inhibition of Control specific binding", "experimental": "as §1"}, "M5 (h)": {"biological_target": "T17, M5 (h) (Homo sapiens, UniProt P08912)", "T17 construct": "gene CHRM5", "T17 sequence (P08912 whole entry)": "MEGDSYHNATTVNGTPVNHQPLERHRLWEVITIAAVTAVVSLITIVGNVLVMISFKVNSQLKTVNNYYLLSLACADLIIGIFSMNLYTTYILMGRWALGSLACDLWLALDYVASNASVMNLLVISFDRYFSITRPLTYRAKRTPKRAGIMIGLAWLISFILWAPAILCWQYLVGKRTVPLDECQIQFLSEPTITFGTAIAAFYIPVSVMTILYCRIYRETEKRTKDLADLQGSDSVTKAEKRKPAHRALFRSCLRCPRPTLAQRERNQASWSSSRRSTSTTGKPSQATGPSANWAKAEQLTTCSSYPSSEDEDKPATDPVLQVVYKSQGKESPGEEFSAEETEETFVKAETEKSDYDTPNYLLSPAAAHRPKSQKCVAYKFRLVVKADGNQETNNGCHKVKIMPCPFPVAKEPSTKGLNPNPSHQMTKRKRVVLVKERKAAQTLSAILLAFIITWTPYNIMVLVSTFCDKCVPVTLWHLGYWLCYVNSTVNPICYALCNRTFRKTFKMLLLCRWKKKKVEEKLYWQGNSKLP", "settings": "Type=Antagonist radioligand; read-out: % inhibition of Control specific binding", "experimental": "as §1"}, "H1 (h)": {"biological_target": "T18, H1 (h) (Homo sapiens, UniProt P35367)", "T18 construct": "gene HRH1", "settings": "Type=Antagonist radioligand; read-out: % inhibition of Control specific binding", "experimental": "as §1"}, "k (KOP)": {"biological_target": "T19, k (KOP) (Rattus norvegicus, UniProt P34975)", "T19 construct": "gene Oprk1", "settings": "Type=Agonist radioligand; read-out: % inhibition of Control specific binding", "experimental": "as §1"}, "5-HT3 (h)": {"biological_target": "T20, 5-HT3 (h) (Homo sapiens, UniProt P46098)", "T20 construct": "gene HTR3A", "settings": "Type=Antagonist radioligand; read-out: % inhibition of Control specific binding", "experimental": "as §1"}, "MAO-A": {"biological_target": "T21, MAO-A (Rattus norvegicus, UniProt P21396)", "T21 construct": "gene Maoa", "settings": "Type=Antagonist radioligand; read-out: % inhibition of Control specific binding", "experimental": "as §1"}}, "data": [{"compound": "O=C(COc1ccc(Cl)c(F)c1)NC12CC(NC(=O)c3cnc(C(F)F)cn3)(C1)C2", "note": "[2BAct]", "values": [{"measurement": "inhibition at 10 µM", "setting": "5-HT2A (h)", "value": 10.8, "unit": "%"}, {"measurement": "inhibition at 10 µM", "setting": "A2a (h)", "value": 24.8, "unit": "%"}, {"measurement": "inhibition at 10 µM", "setting": "AR (h)", "value": -0.2, "unit": "%"}, {"measurement": "inhibition at 10 µM", "setting": "NK2 (h)", "value": 12, "unit": "%"}, {"measurement": "inhibition at 10 µM", "setting": "Y1 (h)", "value": -17.4, "unit": "%"}, {"measurement": "inhibition at 10 µM", "setting": "5-HT1A (h)", "value": 15.8, "unit": "%"}, {"measurement": "inhibition at 10 µM", "setting": "5-HT1B", "value": -8.8, "unit": "%"}, {"measurement": "inhibition at 10 µM", "setting": "CGRP (h)", "value": -4.8, "unit": "%"}, {"measurement": "inhibition at 10 µM", "setting": "M4 (h)", "value": 11, "unit": "%"}, {"measurement": "inhibition at 10 µM", "setting": "Estrogen ER alpha (h)", "value": -7.7, "unit": "%"}, {"measurement": "inhibition at 10 µM", "setting": "A2b (h)", "value": 50.1, "unit": "%"}, {"measurement": "inhibition at 10 µM", "setting": "CB1 (h)", "value": 8.3, "unit": "%"}, {"measurement": "inhibition at 10 µM", "setting": "EP2 (h)", "value": -4, "unit": "%"}, {"measurement": "inhibition at 10 µM", "setting": "dopamine transporter (h)", "value": 53.2, "unit": "%"}, {"measurement": "inhibition at 10 µM", "setting": "M3 (h)", "value": -0.9, "unit": "%"}, {"measurement": "inhibition at 10 µM", "setting": "[1]", "value": 61, "unit": "%"}, {"measurement": "inhibition at 10 µM", "setting": "NK1 (h)", "value": 29.1, "unit": "%"}, {"measurement": "inhibition at 10 µM", "setting": "M5 (h)", "value": 11.8, "unit": "%"}, {"measurement": "inhibition at 10 µM", "setting": "H1 (h)", "value": 0.2, "unit": "%"}, {"measurement": "inhibition at 10 µM", "setting": "k (KOP)", "value": 2.1, "unit": "%"}, {"measurement": "inhibition at 10 µM", "setting": "5-HT3 (h)", "value": 9.2, "unit": "%"}, {"measurement": "inhibition at 10 µM", "setting": "MAO-A", "value": 10.2, "unit": "%"}]}]}
